Source: patent US20230149355A1, “COMPOSITIONS AND METHODS FOR MODULATING TRP CHANNEL ACTIVITY” (priority 2020, published 2023)
Blank lines part the entries; values can stand above or below the compound they belong to.

Assays:
zebrafish EECs (Trpa1) = assay: In vivo EEC calcium, Tg(neurod1:Gcamp6f) zebrafish
Experimental: To record in vivo EEC activity using the Tg(neurod1:Gcamp6f) system, a published protocol with slight modification (Ye et al., 2019) was used. In brief, unanesthetized zebrafish larvae were gently mounted in 3% methylcellulose. Excess water was removed and zebrafish larvae were gently positioned with right side up. Zebrafish were then moved onto an upright Leica M205 FA fluorescence stereomicroscope equipped with a Leica DFC 365FX camera. The zebrafish larvae were allowed to recover for 2 mins before 100 μL of test agent was pipetted directly in front of the mouth region. Images were then recorded every 10 seconds. The data shown in FIG. 2O-R, depicting the EEC responses to E. tarda stimulation, were obtained by mounting unanesthetized zebrafish larvae in 1% low melting agarose. A window (5×5 mm) was cut to expose the head region of the zebrafish. 10 μL of E. tarda culture [˜10^9 Colony Forming Unit (CFU)] were delivered at the zebrafish mouth area. Images were recorded every 10 secs for 20 mins. Image processing and analysis were performed using FIJI software. Time-lapse fluorescence images were first aligned to correct for experimental drift using the plugin “align slices in stack.” Normalized correlation coefficient matching and bilinear interpolation methods for subpixel translation were used for aligning slices (Tseng et al., 2012). The plugin “rolling ball background subtraction” with the rolling ball radius=10 pixels was used to remove the large spatial variation of background intensities. The Gcamp6f fluorescence intensity in the intestinal region was then calculated for each time point. The ratio of maximum fluorescence (Fmax) and the initial fluorescence (F0) was used to measure EEC calcium responses.
For EEC Trpa1 activation using the Optovin platform, zebrafish larvae were treated with 10 μM Optovin overnight. Following Optovin treatment, unanesthetized zebrafish were mounted in 1% LMA and imaged under a 780 upright Zeiss confocal microscope using 20× water objective lenses. For all the experiments, the mid-intestine region was imaged (FIG. 10D). The intestinal epithelium was selected as the region of interest (ROI) (FIG. 10A). Serial images were obtained at 1 s/frame. A 405 nm pulse of light was applied to the ROI at 1 pulse/10 s. For some experiments (FIG. 7D-F, FIG. 10B-G), the images were obtained at 10 s/frame. When measuring Optovin effects on intestinal motility in ret−/−, sox10−/− or tph1b−/− zebrafish larvae, embryos were collected from heterozygous zebrafish. ret−/− zebrafish were identified by lack of ENS and deflated swim bladder (Knight et al., 2011), sox10−/− zebrafish were identified by lack of pigment (Rolig et al., 2017), and tph1b−/− zebrafish were identified by PCR-based genotyping (Tornini et al., 2017).
To determine whether Optovin-UV or ChR2 was sufficient to activate EECs, Tg(neurod1:Gcamp6f) zebrafish were used. […] The Gcamp6f signal was recorded with 488 nm laser intensity less than 0.5. The zebrafish intestinal motility is quantified through recorded image series of zebrafish intestine using the method similar as previously described (Ganz et al., 2018). […] When calculating the mean velocity, only the mean velocity magnitude was calculated, which therefore doesn't account for the movement direction. The MTrackJ FIJI plugin was used to quantify the mean velocity magnitude (Meijering et al., 2012).

mouse TRPA1 = target: T1, mouse TRPA1 (Mus musculus, UniProt Q8BLA8); assay: Ca2+ influx (Calcium 6 fluorescence) in mouse Trpa1-expressing HEK-293T cells; type: cell-based
T1 construct: expressed in transfected cells; host or cells: HEK-293T
T1 sequence (Q8BLA8 whole entry): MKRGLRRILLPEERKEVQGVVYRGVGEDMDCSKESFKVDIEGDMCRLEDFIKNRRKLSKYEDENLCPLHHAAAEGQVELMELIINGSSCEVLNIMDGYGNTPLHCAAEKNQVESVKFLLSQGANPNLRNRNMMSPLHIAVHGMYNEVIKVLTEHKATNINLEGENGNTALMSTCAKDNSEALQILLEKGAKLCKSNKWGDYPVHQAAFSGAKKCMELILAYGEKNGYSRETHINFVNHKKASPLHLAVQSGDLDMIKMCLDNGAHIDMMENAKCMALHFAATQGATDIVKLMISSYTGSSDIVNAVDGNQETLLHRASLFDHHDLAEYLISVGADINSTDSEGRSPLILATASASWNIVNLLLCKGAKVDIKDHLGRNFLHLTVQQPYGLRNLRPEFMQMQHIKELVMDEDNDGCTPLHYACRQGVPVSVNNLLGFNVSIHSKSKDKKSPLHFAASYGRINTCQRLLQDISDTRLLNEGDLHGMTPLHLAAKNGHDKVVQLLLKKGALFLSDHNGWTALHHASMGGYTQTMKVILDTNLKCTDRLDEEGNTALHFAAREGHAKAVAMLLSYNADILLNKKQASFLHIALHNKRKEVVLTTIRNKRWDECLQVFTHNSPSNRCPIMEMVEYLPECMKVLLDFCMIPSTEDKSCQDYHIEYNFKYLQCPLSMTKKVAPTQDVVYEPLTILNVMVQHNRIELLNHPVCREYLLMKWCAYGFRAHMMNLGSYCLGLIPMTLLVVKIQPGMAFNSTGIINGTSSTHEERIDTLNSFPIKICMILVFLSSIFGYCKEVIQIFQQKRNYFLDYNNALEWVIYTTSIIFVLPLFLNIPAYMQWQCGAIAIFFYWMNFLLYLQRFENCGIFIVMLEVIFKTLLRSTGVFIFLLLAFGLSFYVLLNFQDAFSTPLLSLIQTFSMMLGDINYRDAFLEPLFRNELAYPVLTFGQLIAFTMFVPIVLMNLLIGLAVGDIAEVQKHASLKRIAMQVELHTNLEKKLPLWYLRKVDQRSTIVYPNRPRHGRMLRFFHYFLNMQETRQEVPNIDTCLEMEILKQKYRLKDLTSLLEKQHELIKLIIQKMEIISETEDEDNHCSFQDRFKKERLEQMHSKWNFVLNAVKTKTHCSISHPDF
Experimental: (§1) HEK-293T cells were cultured in DMEM (Thermofisher Scientific, Waltham, Mass.) and supplemented with 10% fetal bovine serum (FBS) (Thermofisher Scientific), penicillin (100 units/mL) and streptomycin (0.1 mg/mL). Cells were plated on 100 mm tissue culture plates coated with poly-D-lysine (Sigma Aldrich, Saint Louis, Mo.) and grown to ˜60% confluence. The cells were transiently transfected for 16-24 hours with either human or mouse orthologs of TRPA1 using Fugene 6 transfection reagents and Opti-MEM (Thermofisher Scientific) according to the manufacturer's protocol. Subsequently, cells were trypsinized, re-suspended and re-plated onto poly-D-lysine coated 96-well plates (Krystal black walled plates, Genesee Scientific) at 5×10^5 cells/mL (100 μL/well) and allowed to grow for another 16-20 hrs prior to the experiments. Cells were maintained as monolayers in a 5% CO2 incubator at 37° C.
(§2) Measurements of changes in intracellular Ca^2+ concentrations ([Ca^2+]i) were performed as described previously (Caceres et al., 2017). In brief, cells in 96-well plates were loaded with Calcium 6, a no-wash fluorescent indicator, for 1.5 hrs (Molecular Devices, San Jose, Calif.) and then transferred to a FlexStation III benchtop scanning fluorometer chamber (Molecular Devices). Fluorescence measurements in the FlexStation were performed at 37° C. (Ex:485 nm, Em: 525 nm at every 1.8 s). After recording baseline fluorescence, agonists (indole, IAld, cinnamaldehyde) were added and fluorescence was monitored for a total of 60 s. […] The change in fluorescence was measured as Fmax-F0, where Fmax is the maximum fluorescence and F0 is the baseline fluorescence measured in each well.

human TRPA1 = human TRPA1 (Homo sapiens, UniProt O75762); assay: Ca2+ influx (Calcium 6 fluorescence) in human TRPA1 expressing HEK-293T cells; type: cell-based
human TRPA1, sequence (O75762 whole entry): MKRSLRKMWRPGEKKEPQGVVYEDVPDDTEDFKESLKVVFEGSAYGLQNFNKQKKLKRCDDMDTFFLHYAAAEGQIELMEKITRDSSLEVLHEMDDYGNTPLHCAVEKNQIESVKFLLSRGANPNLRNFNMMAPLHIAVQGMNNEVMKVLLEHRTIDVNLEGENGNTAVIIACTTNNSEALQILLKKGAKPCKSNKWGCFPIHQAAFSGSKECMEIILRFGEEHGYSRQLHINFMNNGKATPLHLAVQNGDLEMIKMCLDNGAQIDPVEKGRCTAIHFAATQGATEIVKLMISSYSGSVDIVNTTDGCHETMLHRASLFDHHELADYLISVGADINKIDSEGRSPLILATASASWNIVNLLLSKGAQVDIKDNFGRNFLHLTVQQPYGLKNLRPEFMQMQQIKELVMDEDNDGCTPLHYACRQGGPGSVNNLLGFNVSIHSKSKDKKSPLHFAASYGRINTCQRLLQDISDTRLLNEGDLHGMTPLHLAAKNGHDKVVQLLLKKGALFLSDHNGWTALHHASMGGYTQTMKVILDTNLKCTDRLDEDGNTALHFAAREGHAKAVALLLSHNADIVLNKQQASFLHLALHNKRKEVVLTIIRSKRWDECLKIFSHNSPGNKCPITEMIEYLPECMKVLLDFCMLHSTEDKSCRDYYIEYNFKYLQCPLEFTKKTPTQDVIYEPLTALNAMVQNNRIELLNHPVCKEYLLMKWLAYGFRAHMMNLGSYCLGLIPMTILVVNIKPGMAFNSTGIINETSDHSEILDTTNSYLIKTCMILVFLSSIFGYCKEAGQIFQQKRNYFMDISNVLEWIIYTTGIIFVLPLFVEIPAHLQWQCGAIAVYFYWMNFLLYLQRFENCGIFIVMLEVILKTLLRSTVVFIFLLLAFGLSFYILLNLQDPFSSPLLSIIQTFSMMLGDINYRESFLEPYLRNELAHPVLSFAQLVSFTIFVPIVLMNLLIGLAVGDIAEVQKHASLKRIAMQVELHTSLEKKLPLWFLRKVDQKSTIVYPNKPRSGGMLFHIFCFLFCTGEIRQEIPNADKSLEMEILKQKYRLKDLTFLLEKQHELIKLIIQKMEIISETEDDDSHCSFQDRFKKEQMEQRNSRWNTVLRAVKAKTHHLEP
Experimental: as §1, §2

vagal sensory neurons = assay: In vivo calcium imaging of vagal sensory ganglia after microgavage; design: species or system zebrafish; conditions: WT; enteric microgavage ~8 nl, AITC 100 mM, indole 1 mM, IAld 1 mM
Experimental: For delivering bacterial or chemicals specifically to the intestine, the established microgavage technique (Cocchiaro and Rawls, 2013) was adopted. Zebrafish were anesthetized with 1 mg/mL α-Bungarotoxin (α-BTX) and the gavage procedure was performed as previously described using microinjection station (Cocchiaro and Rawls, 2013). For bacteria gavage experiments, 1 ml of overnight bacterial culture was harvested, pelleted, washed with PBS and resuspended in 100 ul PBS.˜8 nl was then delivered into the zebrafish intestine using microgavage. The gavaged zebrafish was then transferred into egg water and mounted in 1% LMA for imaging. For chemical gavage experiments, ˜8 nl of AITC (100 mM), indole (1 mM) and IAld (1 mM) was gavaged into the intestine.
Tg(neurod1:Gcamp6f); Tg(neurod1:TagRFP) zebrafish were used to record vagal sensory ganglia calcium activity in vivo. Zebrafish were anesthetized with 1 mg/mL α-Bungarotoxin (α-BTX) and gavaged with chemical compounds or bacteria as described (Naumann et al., 2016). Zebrafish larvae were mounted in 1% LMA and imaged under a Zeiss 780 upright confocal microscope. Z-stack images of the entire vagal ganglia were collected as serial images at 10 mins/frame and processed in FIJI. Individual vagal sensory neurons were identified and the Gcamp6f to TagRFP fluorescence ratios of individual vagal sensory neurons were calculated.

intestinal motility = assay: Zebrafish intestinal motility (PIV-Lab velocity analysis); type: in vivo
Excerpt: The zebrafish intestinal motility is quantified through recorded image series of zebrafish intestine using the method similar as previously described (Ganz et al., 2018). Intestinal p velocity and v velocity were used to estimate intestinal motility in zebrafish as previously described using the PIV-Lab MATLAB app (Ganz et al., 2018). A positive value of the μ velocity indicates an anterograde intestinal movement and a negative value of the μ velocity indicates a retrograde intestinal movement. The time-course p velocity number is plotted as heatmaps. When calculating the mean velocity, only the mean velocity magnitude was calculated, which therefore doesn't account for the movement direction. The MTrackJ FIJI plugin was used to quantify the mean velocity magnitude (Meijering et al., 2012).

AhR signaling = conditions: 2-hour 10 μM and 3-day 0.5 μM treatment; cited from earlier work
E. tarda = assay: Intestinal E. tarda mCherry accumulation in zebrafish treated with AhR inhibitors; type: in vivo; conditions: AhR inhibitor 1 μM or folic acid 10 μM, 3 dpf to 6 dpf
Experimental: For E. tarda colonization experiments, fertilized zebrafish eggs were collected, sorted and transferred into a cell culture flask containing 80 mL GZM at 0 dpf. At 3 dpf, dead embryos and 60 mL GZM were removed and replaced with 50 mL fresh GZM in each flask. To facilitate consistent commensal gut bacterial colonization, an additional 10 mL of filtered system water (5 μm filter, SLSV025LS, Millipore) were added to each flask. Overnight E. tarda mCherry culture was harvested, washed three times with GZM. 150 μL of GZM-washed E. tarda mCherry culture were inoculated into each flask. The E. tarda concentration is ˜10^6 CFU/ml. […] At 6 dpf, zebrafish larvae were subjected to fluorescence imaging analysis or CFU quantification. For fluorescence imaging analysis, zebrafish larvae were anesthetized with Tricaine ([…]), mounted in 3% methylcellulose and imaged with a Leica M205 FA upright fluorescence stereomicroscope equipped with a Leica DFC 365FX camera. For CFU quantification, digestive tracts were dissected and transferred into 1 mL sterile PBS which was then mechanically disassociated using a Tissue-Tearor (BioSpec Products, 985370). […] The mCherry+ colonies were quantified from each plate and E. tarda colony forming units (CFUs) per fish were calculated. […]

Structure (SMILES): O=Cc1c[nH]c2ccccc12 [IAld, indole-3-carboxaldehyde]
Zebrafish EEC activation (Gcamp6f fluorescence) (zebrafish EECs (Trpa1); trpa1b-dependent): strongly activated
Activation of mouse Trpa1 (mouse TRPA1; compared with human TRPA1): activated mouse Trpa1, but in a less potent manner
EC50 (mouse TRPA1; mouse TRPA1, normalized to 1 mM cinnamaldehyde (CAD), read-out: EC50, dose-response effects on mouse TRPA1): 189 µM
Activation of human TRPA1 receptor transfected into HEK cells (human TRPA1): activated
TRPA1 agonist efficacy (human TRPA1; efficiency comparable to cinnamaldehyde (CAD)): full TRPA1 agonist activity
EC50 (human TRPA1; human TRPA1 expressing HEK-293T cells, normalized to 1 mM cinnamaldehyde (CAD), read-out: EC50, integrated Calcium 6 fluorescence response above baseline (Fmax-F0; maximal change in Ca2+ influx)): 77.7 µM
Gcamp6f fluorescence in a subset of vagal sensory neurons (vagal sensory neurons): increased

Effect on indole- and IAld-induced mouse Trpa1 activation (mouse TRPA1; mouse): blocked
IC50 (mouse TRPA1; mouse Trpa1-expressing HEK-293T cells, normalized to 100 μM Indole): 315 nM
Effect on indole- and IAld-induced human Trpa1 activation (human TRPA1; human): blocked
Structure (SMILES): CCC(=N\O)/C(C)=C/c1ccc(F)cc1 [A967079]

Structure (SMILES): Cc1cc(/C=C2/SC(=S)NC2=O)c(C)n1-c1cccnc1 [Optovin]
EEC [Ca2+]i (Gcamp6f fluorescence) after UV light activation (zebrafish EECs (Trpa1); WT larvae pretreated with Optovin 10 μM overnight, 405 nm): significantly increased
EEC [Ca2+]i after UV light exposure (zebrafish EECs (Trpa1); trpa1b−/− larvae pretreated with Optovin): did not increase
Intestinal motility after Optovin treatment and UV activation (intestinal motility; EEC-ablated zebrafish): failed to induce intestinal motility
Velocity of intestinal motility after Optovin-UV Trpa1 activation (intestinal motility; WT larvae, middle intestine): increased

Structure (SMILES): Cc1ccccc1N=Nc1ccc(NC(=O)c2ccnn2C)c(C)c1 [CH223191]
Effect on Optovin-UV induced intestinal motility change (intestinal motility; AhR inhibitor 10 μM or folic acid 10 μM for 2 hours): insufficient to block
Inhibition of larvae zebrafish AhR signaling (AhR signaling): sufficient to inhibit
Effect on E. tarda intestinal accumulation (E. tarda): insufficient to block
